Experiments:
[1] = biological target: Muscarinic acetylcholine receptor M3 (Homo sapiens, UniProt P20309); assay: Displacement of [3H]N-methylscopolamine from human muscarinic M3 receptor expressed in human HEK293T cell membranes by radioligand competition binding based analysis; parameters: species or system Cell membrane
[2] = biological target: T1, Muscarinic acetylcholine receptor M2 (Homo sapiens, UniProt P08172); assay: Displacement of [3H]N-methylscopolamine from human muscarinic M2 receptor expressed in human HEK293T cell membranes by radioligand competition binding based analysis; parameters: species or system Cell membrane
T1 sequence (P08172 whole entry): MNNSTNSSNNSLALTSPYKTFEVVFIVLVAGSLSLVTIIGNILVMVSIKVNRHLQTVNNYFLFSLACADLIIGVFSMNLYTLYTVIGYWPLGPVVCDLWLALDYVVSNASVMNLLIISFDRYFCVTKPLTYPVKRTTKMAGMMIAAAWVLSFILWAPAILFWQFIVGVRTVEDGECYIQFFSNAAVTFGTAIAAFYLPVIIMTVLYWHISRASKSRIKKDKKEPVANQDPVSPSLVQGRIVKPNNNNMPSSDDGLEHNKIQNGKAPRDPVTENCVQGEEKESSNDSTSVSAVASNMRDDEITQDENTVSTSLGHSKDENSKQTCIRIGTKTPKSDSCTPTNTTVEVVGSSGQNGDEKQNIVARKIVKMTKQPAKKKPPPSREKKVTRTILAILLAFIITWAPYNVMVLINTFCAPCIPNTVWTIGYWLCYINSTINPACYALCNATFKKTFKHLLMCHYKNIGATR

[3] = biological target: T2, Muscarinic acetylcholine receptor M1 (Homo sapiens, UniProt P11229); assay: Displacement of [3H]N-methylscopolamine from human muscarinic M1 receptor expressed in human HEK293T cell membranes by radioligand competition binding based analysis; parameters: species or system Cell membrane
T2 sequence (P11229 whole entry): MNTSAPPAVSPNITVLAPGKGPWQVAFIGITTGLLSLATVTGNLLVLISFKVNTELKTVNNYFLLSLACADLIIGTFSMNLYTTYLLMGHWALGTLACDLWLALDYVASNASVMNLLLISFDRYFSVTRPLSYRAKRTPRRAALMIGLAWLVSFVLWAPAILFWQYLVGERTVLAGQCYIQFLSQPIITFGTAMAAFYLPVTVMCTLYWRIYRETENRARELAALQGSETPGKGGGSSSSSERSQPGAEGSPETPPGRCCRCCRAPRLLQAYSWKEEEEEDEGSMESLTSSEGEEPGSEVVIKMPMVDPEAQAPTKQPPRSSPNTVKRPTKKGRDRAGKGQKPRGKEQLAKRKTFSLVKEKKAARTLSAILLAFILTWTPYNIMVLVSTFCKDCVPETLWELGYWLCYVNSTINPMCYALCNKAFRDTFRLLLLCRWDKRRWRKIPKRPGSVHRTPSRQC

Homo sapiens [4] = organism: Homo sapiens; assay: Selectivity ratio, Ki for displacement of [3H]N-methylscopolamine from human muscarinic M4 receptor expressed in human HEK293T cell membranes to Ki for displacement of [3H]N-methylscopolamine from human muscarinic M3 receptor expressed in human HEK293T cell membranes
[5] = biological target: T3, Muscarinic acetylcholine receptor M4 (Homo sapiens, UniProt P08173); assay: Displacement of [3H]N-methylscopolamine from human muscarinic M4 receptor expressed in human HEK293T cell membranes by radioligand competition binding based analysis; parameters: species or system Cell membrane
T3 sequence (P08173 whole entry): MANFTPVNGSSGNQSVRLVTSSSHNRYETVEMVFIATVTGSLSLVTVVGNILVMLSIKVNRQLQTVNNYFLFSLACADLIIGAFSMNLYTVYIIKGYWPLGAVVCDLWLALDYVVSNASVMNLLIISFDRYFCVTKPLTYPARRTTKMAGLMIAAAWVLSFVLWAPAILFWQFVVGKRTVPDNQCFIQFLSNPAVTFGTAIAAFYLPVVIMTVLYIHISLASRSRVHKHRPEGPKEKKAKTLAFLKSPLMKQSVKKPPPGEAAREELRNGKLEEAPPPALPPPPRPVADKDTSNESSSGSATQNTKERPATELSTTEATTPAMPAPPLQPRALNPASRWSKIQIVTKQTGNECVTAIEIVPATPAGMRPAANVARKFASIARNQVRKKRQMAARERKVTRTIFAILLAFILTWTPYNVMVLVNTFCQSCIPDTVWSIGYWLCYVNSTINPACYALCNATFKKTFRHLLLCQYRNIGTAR

Homo sapiens [6] = organism: Homo sapiens; assay: Selectivity ratio, Ki for displacement of [3H]N-methylscopolamine from human muscarinic M5 receptor expressed in human HEK293T cell membranes to Ki for displacement of [3H]N-methylscopolamine from human muscarinic M3 receptor expressed in human HEK293T cell membranes
[7] = biological target: T4, Muscarinic acetylcholine receptor M5 (Homo sapiens, UniProt P08912); assay: Displacement of [3H]N-methylscopolamine from human muscarinic M5 receptor expressed in human HEK293T cell membranes by radioligand competition binding based analysis; parameters: species or system Cell membrane
T4 sequence (P08912 whole entry): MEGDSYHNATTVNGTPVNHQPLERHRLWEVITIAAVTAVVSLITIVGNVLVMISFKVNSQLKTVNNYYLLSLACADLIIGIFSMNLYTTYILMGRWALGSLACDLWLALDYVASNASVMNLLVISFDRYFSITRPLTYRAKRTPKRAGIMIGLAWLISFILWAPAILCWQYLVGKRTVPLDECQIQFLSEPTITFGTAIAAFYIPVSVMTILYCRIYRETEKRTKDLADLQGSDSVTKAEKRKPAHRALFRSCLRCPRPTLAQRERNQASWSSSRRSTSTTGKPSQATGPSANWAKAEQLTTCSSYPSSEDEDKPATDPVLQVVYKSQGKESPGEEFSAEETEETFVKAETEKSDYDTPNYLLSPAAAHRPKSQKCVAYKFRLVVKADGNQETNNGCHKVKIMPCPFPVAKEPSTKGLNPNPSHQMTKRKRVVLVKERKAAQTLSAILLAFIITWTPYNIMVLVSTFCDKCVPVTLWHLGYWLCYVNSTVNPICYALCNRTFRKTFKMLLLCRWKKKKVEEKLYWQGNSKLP

Muscarinic acetylcholine receptor M3, sequence (P20309 whole entry): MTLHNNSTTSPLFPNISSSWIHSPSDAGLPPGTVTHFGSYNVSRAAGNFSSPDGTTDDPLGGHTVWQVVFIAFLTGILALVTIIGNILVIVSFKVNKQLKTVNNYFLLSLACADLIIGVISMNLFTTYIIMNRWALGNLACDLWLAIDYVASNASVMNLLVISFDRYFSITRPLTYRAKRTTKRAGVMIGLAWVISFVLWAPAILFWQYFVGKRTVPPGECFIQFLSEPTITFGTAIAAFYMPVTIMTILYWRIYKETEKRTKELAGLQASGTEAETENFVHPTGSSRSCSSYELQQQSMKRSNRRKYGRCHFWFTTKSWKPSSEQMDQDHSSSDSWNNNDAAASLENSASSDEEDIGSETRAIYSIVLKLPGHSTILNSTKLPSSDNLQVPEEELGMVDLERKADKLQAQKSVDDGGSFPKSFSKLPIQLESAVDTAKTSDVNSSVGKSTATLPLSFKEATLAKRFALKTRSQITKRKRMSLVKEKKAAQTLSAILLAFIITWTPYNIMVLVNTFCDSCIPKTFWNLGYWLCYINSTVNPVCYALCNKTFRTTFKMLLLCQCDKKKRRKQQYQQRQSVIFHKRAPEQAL

Row | Ki [1] [nM] | Ki [2] [nM] | Ki [3] [nM] | Ki [5] [nM] | Ki [7] [nM] | Compound | Selectivity ratio (Homo sapiens [4]) | Selectivity ratio (Homo sapiens [6])
1 | 0.081 | 1.4 | 0.43 |  |  | NCCCCCCN1CCC(COC(=O)Nc2ccc(F)cc2-c2ccc(F)c(Cl)c2)CC1 |  | 
2 | 3.1 | 26 | 3.8 | 2.6 | 12 | CN(C)c1ccc2c(-c3ccc(-c4cn(CCCCCn5cc(CCCCCN6CCC(COC(=O)Nc7ccc(F)cc7-c7ccc(F)c(Cl)c7)CC6)nn5)nn4)cc3C(=O)[O-])c3ccc(=[N+](C)C)cc-3oc2c1 | 0.84 | 3.9
3 | 1.8 | 23 | 2 |  |  | C#CCCCCCN1CCC(OC(=O)Nc2ccc(F)cc2-c2ccc(F)c(Cl)c2)CC1 |  | 
4 | 6.8 | 26 | 4.1 | 3.3 | 9.7 | CN(C)c1ccc2c(-c3ccc(-c4cn(CCCCCn5cc(CCCCCN6CCC(OC(=O)Nc7ccc(F)cc7-c7ccc(F)c(Cl)c7)CC6)nn5)nn4)cc3C(=O)[O-])c3ccc(=[N+](C)C)cc-3oc2c1 | 0.49 | 1.4
5 | 3.2 | 1.1 | 1.8 | 0.56 | 2.6 | CN1/C(=C/C=C/C=C/C2=[N+](CCCCCC(=O)NCCCCCCCCN3CCC(COC(=O)Nc4ccc(F)cc4-c4ccc(F)c(Cl)c4)CC3)c3ccccc3C2(C)C)C(C)(C)c2ccccc21 | 0.18 | 0.81
6 | 2.6 | 28 | 1.9 |  |  | NCCCCCCN1CCC(OC(=O)Nc2ccc(F)cc2-c2ccc(F)c(Cl)c2)CC1 |  | 
7 |  | 0.62 | 1 | 0.86 |  | CN1/C(=C/C=C/C=C/C2=[N+](CCCCCC(=O)NCCCCCCCCN3CCC(OC(=O)Nc4ccc(F)cc4-c4ccc(F)c(Cl)c4)CC3)c3ccccc3C2(C)C)C(C)(C)c2ccccc21 | 1.4 | 
8 | 0.15 | 0.92 | 0.35 |  |  | NCCCCCCCCN1CCC(COC(=O)Nc2ccc(F)cc2-c2ccc(F)c(Cl)c2)CC1 |  | 
9 | 0.32 | 9.3 | 0.64 |  |  | C#CCCCCCCN1CCC(COC(=O)Nc2ccc(F)cc2-c2ccc(F)c(Cl)c2)CC1 |  | 
10 | 0.77 | 13 | 1.3 |  |  | C#CCCCCCN1CCC(COC(=O)Nc2ccc(F)cc2-c2ccc(F)c(Cl)c2)CC1 |  | 
11 | 6.3 | 6.7 | 2.3 | 0.9 | 6.9 | CN1/C(=C/C=C/C=C/C2=[N+](CCCCCC(=O)NCCCCCCN3CCC(COC(=O)Nc4ccc(F)cc4-c4ccc(F)c(Cl)c4)CC3)c3ccccc3C2(C)C)C(C)(C)c2ccccc21 | 0.14 | 1.1
12 | 0.28 | 1.7 | 0.34 |  |  | NCCCCCCCCN1CCC(OC(=O)Nc2ccc(F)cc2-c2ccc(F)c(Cl)c2)CC1 |  | 
13 | 12 | 9.8 | 2 | 3.8 | 11 | CN(C)c1ccc2c(-c3ccc(-c4cn(CCCCCn5cc(CCCCCCN6CCC(OC(=O)Nc7ccc(F)cc7-c7ccc(F)c(Cl)c7)CC6)nn5)nn4)cc3C(=O)[O-])c3ccc(=[N+](C)C)cc-3oc2c1 | 0.32 | 0.92
14 | 7.7 | 9.9 | 1.9 | 1.7 | 18 | CN1/C(=C/C=C/C=C/C2=[N+](CCCCCC(=O)NCCCNCCCCCCN3CCC(COC(=O)Nc4ccc(F)cc4-c4ccc(F)c(Cl)c4)CC3)c3ccccc3C2(C)C)C(C)(C)c2ccccc21 | 0.22 | 2.3
15 | 1 | 7.9 | 0.63 |  |  | C#CCCCCCCN1CCC(OC(=O)Nc2ccc(F)cc2-c2ccc(F)c(Cl)c2)CC1 |  | 
16 | 2.7 | 5.9 | 2.7 | 5.4 | 40 | CN1/C(=C/C=C/C=C/C2=[N+](CCCCCC(=O)NCCCCCCN3CCC(OC(=O)Nc4ccc(F)cc4-c4ccc(F)c(Cl)c4)CC3)c3ccccc3C2(C)C)C(C)(C)c2ccccc21 | 2 | 15
17 | 4.3 | 92 | 2.8 |  |  | O=C(Nc1ccc(F)cc1-c1ccc(F)c(Cl)c1)OC1CCNCC1 |  | 

Reference: ChEMBL document CHEMBL5236624, “Synthesis, Characterization, and Application of Muscarinergic M3 Receptor Ligands Linked to Fluorescent Dyes” (J Med Chem, 2022)
